Measured values as given in US20110319352A1, “Compounds That Bind Oxysterol Binding Proteins, and Methods of Use Thereof” (President and Fellows of Harvard College, priority 2008, published 2011).

Columns and labels:
normal astrocytes = settings: cited from earlier work
[1] = tested on: HCT-116 p21−/− cells with siRNA knockdown of p53; assay: GI50 after siRNA knockdown of p53; type: cell-based; settings: data not shown
Description: (§1) [5] […] This shared p21 differential cytotoxicity supports the idea of a common CRAM mechanism of action and likely similar target. […] However, caution has to be exercised in concluding that compounds found to be selective for p21 deficient HCT-116 cells are truly synthetic lethal with p21. It was recently reported that compounds shown to be hypersensitive to HCT-116 p21^−/− cells was actually due to an overexpression of p53 in that cell line. Subsequent siRNA knockdown of p53 eliminated the apparent p21 synthetic lethality.

OSBP = biological target: T1, OSBP (Homo sapiens, UniProt P22059); assay: affinity chromatography (pulldown) from HeLa cell S-100 lysates; type: binding; settings: HeLa S-100 lysate, competition with soluble 15 μM OSW-1
T1 construct: endogenous in cells; host or cells: HeLa (S-100 cytosol lysate)
Method: FIG. 3 depicts the results of a OSW-1 pulldown experiment from HeLa cytosol. Protocol: (1) prepare S-100 HeLa cytosol lysate; (2) preincubate competition lysate with […] OSW-1 for 1 hr; (3) incubate […] of AB-9 and AB-11 Resin (˜16 mmol AB-9/mL resin) with 50 mg protein overnight; and (4) wash resin and elute in sample buffer.
Using active OSW-1 analog 6a, described above, sepharose-linked affinity reagent 6b was prepared, and affinity chromatography experiments using HeLa cell S-100 lysates were performed. […] Upon repeating the affinity chromatography experiment, only band 1, not bands 2 or 3, was enriched. […] [43] Subsequently lanes 1 and 2 were processed in their entirety to identify proteins competed in lane 2 that were not visible on the gel. […] No other CRAMs were tested in affinity chromatography competition experiments, but described below are direct binding studies between CRAMs and OSBP. Since OSBP is the most abundant of the OSBP/ORPs in cells, it was the most abundant OSBP/ORP from the pulldown, and because its biology is the best characterized, further experiments based upon OSBP were performed, as detailed below.

U87-MG = settings: cited from earlier work
HL-60 = settings: cited from earlier work
recombinant OSBP-myc-his = biological target: T2, recombinant OSBP-myc-his (Homo sapiens, UniProt P22059); assay: competitive binding assay, displacement of [3H]-25-OHC from OSBP (charcoal-dextran, liquid scintillation counting); settings: 20 nM [3H]-25-OHC, OSBP-myc-his S100 lysate (HEK-293T), 16 h at 4° C.; read-out: Ki, displacing OSBP-bound [3H]-25-OHC
T2 construct: made in house; host or cells: HEK-293T (crude S100 lysate, not purified)
T2 sequence (P22059 1-807): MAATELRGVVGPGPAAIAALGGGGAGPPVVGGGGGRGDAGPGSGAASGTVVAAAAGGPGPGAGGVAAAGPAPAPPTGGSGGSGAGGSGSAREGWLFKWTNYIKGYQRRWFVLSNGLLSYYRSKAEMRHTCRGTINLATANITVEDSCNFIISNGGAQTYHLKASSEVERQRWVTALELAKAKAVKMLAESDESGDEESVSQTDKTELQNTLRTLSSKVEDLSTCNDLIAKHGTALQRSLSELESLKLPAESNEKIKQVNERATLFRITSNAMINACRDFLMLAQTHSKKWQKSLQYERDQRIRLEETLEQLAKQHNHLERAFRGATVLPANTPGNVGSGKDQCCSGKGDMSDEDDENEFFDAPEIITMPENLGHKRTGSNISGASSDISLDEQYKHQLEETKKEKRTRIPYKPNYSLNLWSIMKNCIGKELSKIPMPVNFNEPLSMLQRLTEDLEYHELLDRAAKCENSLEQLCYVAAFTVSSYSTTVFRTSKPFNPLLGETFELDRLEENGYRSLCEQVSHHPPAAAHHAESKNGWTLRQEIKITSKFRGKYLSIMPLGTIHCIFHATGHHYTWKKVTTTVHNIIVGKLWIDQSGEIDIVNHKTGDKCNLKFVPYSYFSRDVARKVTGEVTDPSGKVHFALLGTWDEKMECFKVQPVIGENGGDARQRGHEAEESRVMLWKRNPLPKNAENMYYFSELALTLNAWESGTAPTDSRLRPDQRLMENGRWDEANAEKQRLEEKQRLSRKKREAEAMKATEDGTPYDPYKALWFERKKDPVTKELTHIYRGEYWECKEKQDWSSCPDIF
Method: It has been determined that CRAMs inhibit the binding of radiolabelled 25-OHC ([^3H]-25-OHC) to recombinant OSBP-myc-his and ORP4-myc-his overexpressed in HEK-293T lysate (FIG. 18). It is known that 25-hydroxycholesterol is a high affinity ligand for OSBP and ORP4. Increasing concentrations of CRAMs or OSW-1 analogs were incubated with 20 nM [^3H]-25-OHC in OSBP-myc-his or ORP4-myc-his S100 lysate for 16 h at 4° C. after which unbound sterol was removed using charcoal-dextran and the bound sterol quantified by LCS (liquid scintillation counting).
These experiments provide evidence that CRAMs are ligands of OSBP and ORP4, and in the case of 1 and 2, they are high affinity ligands.
To measure the Kis of CRAMs to OSBP and ORP4 reported above, a previously reported dextran-coated charcoal assay was adapted into a 96-well format. […] To solve these limitations a binding SPA (scintillation proximity assay) for OSBP/ORPs (FIG. 26) will be developed.

HCT-116 p21−/− cells = assay: growth inhibition of HCT-116 cells lacking p21 (p21 dependence); type: cell-based
Description: Values are mean±SD of 3 individual experiments each performed in sextublicate or from a single experiment performed in sextublicate. Values for […] were reported in the literature (see Beutler J A, Shoemaker R H, Johnson T, Boyd M R. “Cytotoxic geranyl stilbenes from Macaranga schweinfurthii,” J. Nat. Prod. 1998, 61(12), 1509-12).
as §1

In the case of `COc1ccc(C(=O)O[C@H]2[C@H](O[C@@H]3[C@@H](OC(C)=O)[C@H](O[C@H]4C[C@H]5[C@@H]6CC=C7C[C@@H](O)CC[C@]7(C)[C@H]6CC[C@]5(C)[C@@]4(O)[C@H](C)C(=O)CCC(C)C)OC[C@@H]3O)OC[C@@H](O)[C@@H]2O)cc1` [OSW-1], the GI50 (normal astrocytes) is given as 7.13 nM, the “GI50 after siRNA knockdown of p53” value [1] is given as “does not alter the GI50” and the “binding of OSBP in pulldown / competition” value (OSBP) is given as “binds OSBP”. The “selectivity, malignant brain tumor cells versus normal astrocytes” value (U87-MG; U87-MG versus normal astrocytes) was 150 fold, the GI50 (U87-MG) was 0.047 nM and the “more active in leukemia cells versus normal lymphocytes” value (HL-60; HL-60 versus normal lymphocytes) was 40 times. For the same molecule, the GI50 (HL-60; read-out: GI50, HL-60 leukemia cells) was 0.04 nM, the Ki (recombinant OSBP-myc-his) was 21 nM and the “differential GI50, HCT-116 p21−/− versus p21+/+” value (HCT-116 p21−/− cells; 48 h (FIG. 14)) was 72 fold. For the same molecule, the “dependence of growth inhibition on p21 status” value (HCT-116 p21−/− cells; HCT-116 p21−/− versus p21+/+) was “selectively growth inhibitory to p21-deficient cells”.
